Data taken from patent publication US20070155687A1, “Methods and compositions for altering cell function” (Alltech, Inc., priority 2005, published 2007).

Legend:
Assay type in all cases: in vivo
Glutathione Peroxidase 3 = assay: Intestinal gene expression (microarray): Glutathione Peroxidase 3; conditions: mouse intestine; diet 1 ppm Se, 100 days; vs selenium deficient; all p < 0.01
Description: (§1) Animal Care. Male C57BL/6J mice were housed singly and started on the experimental diets described below immediately after weaning (21 days of age). The mice were maintained in the Shared Aging Rodent Facility at the William S. Middleton Memorial Veterans Administration Medical Center (Madison, Wis.). Temperature and humidity were maintained at constant levels. Room light was controlled to provide 12-hr cycles of light and dark.
(§2) Experimental diets were created by Harlan Teklad (Madison, Wis.). Selenium content of the diets was determined by Covance Inc. (Madison, Wis.). Five (5) animals were included in each of the following treatment groups: a diet deficient in selenium (SD); a diet supplemented with selenomethionine (SM, obtained from Sigma, St. Louis, Mo.) such that the final selenium content of the diet was one (1) part per million; a diet supplemented with sodium selenite (SS, Sigma) such that the final concentration of selenium in this diet was one (1) part per million; or a diet supplemented with the yeast selenium SEL-PLEX (SP, Alltech, Lexington, Ky), such that the final concentration of selenium in this diet was one (1) part per million. SEL-PLEX. […]
(§3) Tissue sample preparation and microarray analysis. […] For intestinal expression studies, the intestine was flushed twice with saline solution and small intestine was measured and divided in three equal segments. […]

[1] = tested on: Type 1 iodothyronine deiodinase; assay: Intestinal gene expression: Type 1 iodothyronine deiodinase; conditions: mouse intestine; diet 1 ppm Se, 100 days; vs selenium deficient
Description: as §1, §2, §3

Selenoprotein W (SelW) = assay: Intestinal gene expression: Selenoprotein W; conditions: mouse intestine; diet 1 ppm Se, 100 days; vs selenium deficient
Description: as §1, §2, §3

[2] = tested on: Growth arrest and DNA-damage-inducible 45 gamma. (Gadd45g); assay: Intestinal gene expression: Gadd45g; conditions: mouse intestine, diet 1 ppm Se, 100 days, vs selenium deficient, negative = down
Description: as §1
Experimental diets were created by Harlan Teklad (Madison, Wis.). Selenium content of the diets was determined by Covance Inc. (Madison, Wis.). Five (5) animals were included in each of the following treatment groups: a diet deficient in selenium (SD); a diet supplemented with selenomethionine (SM, obtained from Sigma, St. Louis, Mo.) such that the final selenium content of the diet was one (1) part per million; a diet supplemented with sodium selenite (SS, Sigma) such that the final concentration of selenium in this diet was one (1) part per million; or a diet supplemented with the yeast selenium SEL-PLEX (SP, Alltech, Lexington, Ky), such that the final concentration of selenium in this diet was one (1) part per million. SEL-PLEX. Mice were provided with water and their respective diet ad libitum for 100 days. Diets were stored at the dark at 4° C. and fresh diet was added to feeder twice weekly.
Tissue sample preparation and microarray analysis. Mice were killed at 100 days of age by cervical dislocation. For intestinal expression studies, the intestine was flushed twice with saline solution and small intestine was measured and divided in three equal segments. A 3-cm region of the middle segment of the small intestine corresponding to the jejunum (˜300 mg of tissue) was cut and rinsed again with physiological saline to completely remove contents, flash frozen in liquid nitrogen and stored at −80° C. For brain (e.g., cerebral cortex) studies, the cerebral cortex was separated from the surrounding brain tissue and was flash frozen in liquid nitrogen and stored at −80° C. […]

[3] = tested on: Complement component 1, q subcomponent binding protein, C1qbp; assay: Cerebral cortex gene expression: C1qbp; conditions: mouse cerebral cortex; diet 1 ppm Se, 100 days; vs selenium deficient; * = significant, p<0.01
Description: as §1, §2, §3

[4] = tested on: Complement component 1, q subcomponent, alpha polypeptide, C1qa; assay: Cerebral cortex gene expression: C1qa; conditions: mouse cerebral cortex; diet 1 ppm Se, 100 days; vs selenium deficient; * = significant, p<0.01
Description: as §1, §2, §3

[5] = tested on: Complement component 1, q subcomponent, beta polypeptide, C1qbp; assay: Cerebral cortex gene expression: C1q beta polypeptide; conditions: mouse cerebral cortex; diet 1 ppm Se, 100 days; vs selenium deficient; * = significant, p<0.01
Description: as §1, §2, §3

[6] = tested on: Complement component 1, r subcomponent, C1r; assay: Cerebral cortex gene expression: C1r; conditions: mouse cerebral cortex; diet 1 ppm Se, 100 days; vs selenium deficient; * = significant, p<0.01
Description: as §1, §2, §3

Cathepsin B = assay: Cerebral cortex gene expression: Cathepsin B; conditions: mouse cerebral cortex; diet 1 ppm Se, 100 days; * downregulation significant relative to Se-deficient mice
Description: as §1, §2, §3

Cathepsin O = assay: Cerebral cortex gene expression: Cathepsin O; conditions: mouse cerebral cortex; diet 1 ppm Se, 100 days; * downregulation significant relative to Se-deficient mice
Description: as §1, §2, §3

Nicastrin = assay: Cerebral cortex gene expression: Nicastrin; conditions: mouse cerebral cortex; diet 1 ppm Se, 100 days; * significant relative to Se-deficient animals, P < 0.01
Description: as §1, §2, §3

Presenilin 1 = assay: Cerebral cortex gene expression: Presenilin 1; conditions: mouse cerebral cortex; diet 1 ppm Se, 100 days; * significant relative to Se-deficient animals, P < 0.01
Description: as §1, §2, §3

[7] = tested on: Amyloid beta (A4) precursor protein-binding, family B, member 1 (Apbb1 or Fe65); assay: Cerebral cortex gene expression: Apbb1/Fe65; conditions: mouse cerebral cortex; diet 1 ppm Se, 100 days; * significant relative to Se-deficient animals, P < 0.01
Description: as §1, §2, §3

[8] = tested on: Amyloid beta (A4) precursor-like protein (Aplp 1); assay: Cerebral cortex gene expression: Aplp 1; conditions: mouse cerebral cortex; diet 1 ppm Se, 100 days; * significant relative to Se-deficient animals, P < 0.01
Description: as §1, §2, §3

[9] = tested on: Amyloid beta (A4) precursor protein-binding, family A, member 1(Apba1); assay: Cerebral cortex gene expression: Apba1; conditions: mouse cerebral cortex; diet 1 ppm Se, 100 days; * significant relative to Se-deficient animals, P < 0.01
Description: as §1, §2, §3

Junb = assay: Cerebral cortex gene expression: Junb; conditions: mouse brain (neocortex); diet 1 ppm Se, 100 days; * significant relative to Se-deficient animals
Description: as §1, §2, §3

Gadd45b = assay: Brain gene expression: Gadd45b; conditions: mouse brain; diet 1 ppm Se, 100 days; * significant relative to Se-deficient animals
Description: as §1, §2, §3

Gst pi 1 (Gstp1) = assay: Brain gene expression: Gstp1; conditions: mouse brain; diet 1 ppm Se, 100 days; * significant relative to Se-deficient animals
Description: as §1, §2, §3

Gst zeta 1 (Gstz1) = assay: Brain gene expression: Gstz1; conditions: mouse brain; diet 1 ppm Se, 100 days; * significant relative to Se-deficient animals
Description: as §1, §2, §3

Gst mu 7 (Gstm7) = assay: Brain gene expression: Gstm7; conditions: mouse brain; diet 1 ppm Se, 100 days; * significant relative to Se-deficient animals
Description: as §1, §2, §3

Row | SMILES | fold change (FC) in Glutathione Peroxidase 3 gene expression (Glutathione Peroxidase 3) [fold] | Type 1 iodothyronine deiodinase expression level, fold increase [1] [fold] | Selenoprotein W (SelW) expression, upregulated (Selenoprotein W (SelW)) | FC C1qbp expression [3] [fold] | FC C1qa expression [4] [fold] | FC Complement component 1, q subcomponent, beta polypeptide expression [5] [fold] | FC C1r expression [6] [fold] | FC Cathepsin B expression (Cathepsin B) | FC Cathepsin O expression (Cathepsin O) [fold] | FC Nicastrin expression (Nicastrin) | FC Presenilin 1 expression (Presenilin 1) [fold] | FC Apbb1 (Fe65) expression [7] | FC Aplp 1 expression [8] | FC Apba1 expression [9] [fold] | FC Junb expression (Junb) [fold] | FC Gadd45b expression (Gadd45b) | FC Gstp1 expression (Gst pi 1 (Gstp1)) [fold] | FC Gstz1 expression (Gst zeta 1 (Gstz1)) [fold] | FC Gstm7 expression (Gst mu 7 (Gstm7)) | further results
1 | C[Se]CC[C@H](N)C(=O)O [SeM, selenomethionine] | 4.6 | 2.0 | not significantly altered | 1.12 | −1.11 | −1.15 | 1.04 | −1.03 fold | −1.16 | 1.04 fold | 1.02 | 1.02 fold | 1.02 fold | 1.08 | −1.38 | −1.26 fold | −1.04 | −1.08 | −1.05 fold | FC Gadd45g expression [2]: decreased expression; FC Gadd45g expression ([2]; listed as SM): −1.5 (p < 0.05) fold
2 | O=[Se](O)O [Sod-sel, sodium selenite] | 3.5 | 2.8 | 5.1 fold | 1.11 | −1.18 | −1.35 | −1.29 | −1.13* fold | −1.18 | −1.67* fold | −1.11 | −1.32* fold | −1.55* fold | −1.41 | −1.59 | −1.39* fold | 1.02 | −1.3 | −1.25* fold | FC Gadd45g expression ([2]; listed as SS): −2.0 (p < 0.01) fold
